{
  "source": "patent US20130295179A1",
  "about": "“NOVEL OMEGA-3 AND OMEGA-6 FATTY ACID COMPOSITIONS AND USES THEREOF” (priority 2010, published 2013)",
  "assay_type_in_all_cases": "in vivo, human",
  "key": {"[1]": {"system": "Newly diagnosed ADHD children", "test": "RCT of omega-3/6 alone or in combination with methylphenidate, one year follow-up (Example 6)", "details": "evaluated by the parents", "method": "Newly diagnosed ADHD children of both genders, 6 to 12 years old, were included in a RCT with one year follow-up in a 3-arm design (A: Omega-3/6; B: Omega 3/6+MTP; and C: MTP). The omega-3/6 fatty acid dosage used was EPA/DHA/GLA (9:3:1) in a total of 792 mg/day (Equazen™). MTP was prescribed in a dosage of 1 mg/kg/day (titration).\nThe ADHD diagnosis and follow up were made using the Diagnostic and Statistical Manual of Mental Disorders fourth edition (DSM-IV) scale, the ADHD Rating Scale Spanish version (ADHD-RS-VE), and the CEAL (Latin-American scale for ADHD) and overall clinical impression (CGI). For clinically meaningful response, a reduction of at least 25% of the symptoms was used. The adverse events (AE) were evaluated by the parents based on the impact on the patients."}, "[2]": {"system": "children between 6 and 12 years of age with a newly diagnosed ADHD", "test": "Continuity in the study, withdrawals and MTP dose needed, randomized pilot trial (Example 7)", "details": "12 months, n = 30 per group", "method": "The trial was performed at the Neurology Department of the Hospital Infantil de México Federico Gomez (Health National Institute for children's in Mexico) as a randomized pilot trial. Three treatment groups were compared: group A: MTP; group B: Omega 3/6; group C: MTP+Omega 3/6. Subjects were randomized to one of these groups after screening. After inclusion to the trial, the subjects underwent three different trial periods: the 4 weeks titration period (only for the group A and group C in relation to the MTP), the 12 months evaluation period and the 6 months follow up period (FIG. 1) […]\nThe stimulant used in this trial was short or long acting methylphenidate (hereafter termed MTP). The daily dose was calculated to start at a concentration of 0.5 mg/kg/day to reach a maximum of 1 mg/kg/day depending on the response and the tolerance. […]\nFor clinically meaningful response, definition of clinical trials with ADHD medications was used, that is: a reduction of at least 25% of the symptoms scores on the ADHD-RS scale. […] The overall clinical impression of symptom severity and functional impairment was measured with the CGI severity scale, which is a clinician rating of the patient's symptom severity related to the clinician's total experience with ADHD patients. […]"}, "[3]": {"system": "children between 6 and 12 years of age with a newly diagnosed ADHD", "test": "Clinical Global Impression (CGI) severity, randomized pilot trial (Example 7)", "method": "(§1) The trial was performed at the Neurology Department of the Hospital Infantil de México Federico Gomez (Health National Institute for children's in Mexico) as a randomized pilot trial. Three treatment groups were compared: group A: MTP; group B: Omega 3/6; group C: MTP+Omega 3/6. Subjects were randomized to one of these groups after screening. After inclusion to the trial, the subjects underwent three different trial periods: the 4 weeks titration period (only for the group A and group C in relation to the MTP), the 12 months evaluation period and the 6 months follow up period (FIG. 1)\n(§2) A total of 107 children between 6 and 12 years of age with a newly diagnosed ADHD entered the screening phase of the trial. The presence of any previous ADHD treatment was an exclusion criterion. 17 children were screening failures and could not be included to the trial. After written informed consent by the parents or tutors of the children, a total of 90 patients were distributed to the three groups following a randomization to the three groups against a set of arbitrary numbers.\n(§3) The omega-3/omega6 fatty acid supplement was used. The daily dosage of this omega 3/6 was of three capsules twice daily, corresponding to a daily dose of 558 mg EPA, 174 mg DHA and 60 mg gamma-linolenic. This specific product was chosen because it was the product and the daily dosage used in three previous clinical studies showing significant positive improvements on ADHD related symptoms without showing significant adverse events.\n(§4) The stimulant used in this trial was short or long acting methylphenidate (hereafter termed MTP). The daily dose was calculated to start at a concentration of 0.5 mg/kg/day to reach a maximum of 1 mg/kg/day depending on the response and the tolerance. The doses were adjusted weekly.\n(§5) Clinical assessments were made at four time points: at baseline, after 3 months, after 6 months and after 12 months. The study consisted in six stages with a total of 12 visits including the screening visit (screening visit 0) and the period of selection and titration of the medication in the case of the group A & C (first 4 weeks). At baseline all the included patients were newly diagnosed with ADHD being drug-naïve (no previous treatment with omega 3/6, MTP or atomoxetine was permitted). ADHD diagnosis was made for patients who met DMS-IV criteria of any subtype and by using the ADHD-RS-VE (Spanish version) and the CEAL (Latin American scale for ADHD). The presence of any associated condition (comorbidity) was assessed by clinical interview according to DSM-IV criteria. The investigator made a medical evaluation, including weight, height, cephalic perimeter, neurological evaluation, sleep patrons and other comorbidities. A questionnaire for the symptoms of fatty acids deficiency was applied, where 0 means without symptoms and 3 with a high degree of symptoms. We analyzed blood samples for biometry hematic and hepatic function.\n(§6) For clinically meaningful response, definition of clinical trials with ADHD medications was used, that is: a reduction of at least 25% of the symptoms scores on the ADHD-RS scale. The other important variable was the permanence time in the study measuring efficacy and tolerability. The overall clinical impression of symptom severity and functional impairment was measured with the CGI severity scale, which is a clinician rating of the patient's symptom severity related to the clinician's total experience with ADHD patients. […]"}, "[4]": {"system": "children between 6 and 12 years of age with a newly diagnosed ADHD", "test": "Side effects / adverse events, randomized pilot trial (Example 7)", "method": "as §1, §2, §3, §4\nThe patients was evaluated at baseline including a physical examination, including height and weight, pulse and blood pressure, a neuromotor examination and assessment of the general level of functioning with CGI. We evaluated each week for the first four weeks and each month for a year. The adverse events (AE) were evaluated at any clinic event appointed by the parents and with an impact over the patients, independently if it was associated or not with the medication. This includes exacerbation of the preexistence symptoms. It was important to note the moment of these AE."}, "[5]": {"system": "children between 6 and 12 years of age with a newly diagnosed ADHD", "test": "ADHD Rating Scale Spanish version (parent ADHD-RS-SV), randomized pilot trial (Example 7)", "method": "as §1, §2\nInclusion criteria: Patients from 6 to 12 years old, diagnosed as having attention-deficit hyperactivity disorder by the DSM-IV, agreement to take part in the survey (letter of informed consent signed by the parent or tutor and letter of acknowledgement). Exclusion criteria: any Axis I psychiatric diagnosis other than ADHD except oppositional defiant behaviour disorder, neurological deficit, seizures or tics; previous treatment of suitable doses of methylphenidate; patients with known hypersensitivity to omega-3.\nas §3, §4, §5, §6"}, "[6]": {"details": "in % of the subjects, n = 30 per group"}},
  "note": "“And” between values parts separate entries of the source, which are not always exact repeats. Equal values may be shown once.",
  "data": [
    {"smiles": "COC(=O)C(c1ccccc1)C1CCCCN1", "note": "(stereo not drawn) [MTP, methylphenidate]", "values": [
      {"measurement": "most frequent AE", "setting": "[1]", "result": "weight reduction, hyporexia, and anxiety"},
      {"measurement": "patients who left the study because of side effects", "setting": "[2]", "result": 6, "unit": "patients"},
      {"measurement": "patients who withdrew for lack of efficacy", "setting": "[2]", "result": 2, "unit": "patients"},
      {"measurement": "CGI severity category reached after treatment", "setting": "[3]; from marked/severe before the treatment", "result": "mild/moderate"},
      {"measurement": "investigator rated CGI, baseline", "setting": "[3]; scale 1 (normal) to 7, baseline mean", "result": "6.30±0.65"},
      {"measurement": "investigator rated CGI, first treatment month", "setting": "[3]; scale 1 to 7, 1 month", "result": "3.67±1.21"},
      {"measurement": "investigator rated CGI severity at 3 months", "setting": "[3]; scale 1 to 7, 3 months", "result": "4.42±1.02"},
      {"measurement": "investigator rated CGI severity at 6 months", "setting": "[3]; scale 1 to 7, 6 months", "result": "3.75±0.44 and 3.90±0.45"},
      {"measurement": "Headache", "setting": "[4]; [6]", "result": 23.3, "unit": "%"},
      {"measurement": "Hiporexia", "setting": "[4]; [6]", "result": 53.3, "unit": "%"},
      {"measurement": "Irritability", "setting": "[4]; [6]", "result": 16.7, "unit": "%"},
      {"measurement": "Pallor", "setting": "[4]; [6]", "result": 16.7, "unit": "%"},
      {"measurement": "Palpitation", "setting": "[4]; [6]", "result": 13.3, "unit": "%"},
      {"measurement": "Seasickness", "setting": "[4]; [6]", "result": 1.0, "unit": "%"},
      {"measurement": "Sleeplessness", "setting": "[4]; [6]", "result": 6.7, "unit": "%"},
      {"measurement": "Tension", "setting": "[4]; [6]", "result": 16.7, "unit": "%"},
      {"measurement": "Tics", "setting": "[4]; [6]", "result": 6.7, "unit": "%"},
      {"measurement": "Tremor", "setting": "[4]; [6]", "result": 1.0, "unit": "%"},
      {"measurement": "hyporexia, number of patients", "setting": "[4]; of 30 per group", "result": 16, "unit": "patients"},
      {"measurement": "ADHD RS total score after one month", "setting": "[5]; after one month treatment", "result": "27.6±4.97"},
      {"measurement": "response of the hyperactivity symptom", "setting": "[5]; comparison of the three treatments", "result": "greater impact"},
      {"measurement": "ADHD RS, total score, After 3 months", "setting": "[5]; mean, after 3 months", "result": "25.29 ± 4.18"},
      {"measurement": "Hyperactive/impulsive subscale, After 3 months", "setting": "[5]; mean, after 3 months", "result": "13.25±3.05"},
      {"measurement": "Inattentive subscale, After 3 months", "setting": "[5]; mean, after 3 months", "result": "12.04±1.78"},
      {"measurement": "ADHD RS, total score, After 12 months", "setting": "[5]; mean, after 12 months", "result": "23.55 ± 1.72"},
      {"measurement": "Hyperactive/impulsive subscale, After 12 months", "setting": "[5]; mean, after 12 months", "result": "12.1±1.29"},
      {"measurement": "Inattentive subscale, After 12 months", "setting": "[5]; mean, after 12 months", "result": "11.45±1.32"},
      {"measurement": "ADHD RS, total score, Baseline", "setting": "[5]; mean, baseline", "result": "41.43±4.32 and 41.43 ± 4.39"},
      {"measurement": "Hyperactive/impulsive subscale, Baseline", "setting": "[5]; mean, baseline", "result": "19.93±5.11"},
      {"measurement": "Inattentive subscale, Baseline", "setting": "[5]; mean, baseline", "result": "21.47±3.20"}
    ]}
  ]
}
